From a melting point compilation (Tetko et al.; mined from patent text by program, amines drawn as free bases though some values may be those of a salt)

Compound | melting point
Cc1cccc2[nH]c(=O)n(S(=O)(=O)c3ccc(Cl)cc3)c(=O)c12 | > 250 °C
CCCCOCCCOCCCCCCNCC(O)c1cc(Cl)c(N)c(Cl)c1 (configuration not stated) | 49 to 51 °C
CCCCCCCCCCCCCCCCCC(=O)N[C@@H](C)C(=O)OC | 84 °C
Cc1c(Cl)cccc1Nc1ncccc1C(=O)OCOC(=O)C(C)(C)C | 90 to 91 °C
CC(C)(C)OC(=O)CN1C(=O)C(N2C(=O)c3ccccc3C2=O)CSCC1c1cccs1 (configuration not stated) | 211 to 212 °C
CCCCCCC(C(=O)N1CC(O)CC1C(=O)O)n1cnc2cc(-c3ccccc3-c3nn[nH]n3)ccc21 (configuration not stated) | 155 to 160 °C
Cc1ccc(OC(Cc2ccc(OCCNC(=O)c3ccc(-c4ccccn4)cc3)cc2)C(=O)O)cc1 (configuration not stated) | 129 to 131 °C
CCOCc1nc2c(N)nc3ccccc3c2n1CCCCCS(N)(=O)=O | 176 to 178 °C
N=C(N)N(CCCC(C=O)NC(=O)CNC(=O)CCc1ccccc1)C(=O)OCc1ccccc1 (configuration not stated) | 69 to 74 °C
CNc1nc(N)nc2c1ncn2C1C=CC(CO)C1 (configuration not stated) | 221 to 223 °C
CN1CCN(c2cnc(-c3cc(Cl)cc(Cl)c3Cl)c(N)n2)CC1 | 185 °C
COCN1C(C)=C(C(=O)OC)C(c2ccccc2C(F)(F)F)C(C(=O)OCOC(=O)C(C)(C)C)=C1C (single isomer, unassigned; (+)) | 110 to 112 °C
O=c1[nH]c2cc(Sc3cccc4cnccc34)c([N+](=O)[O-])cc2s1 | > 270 °C
O=C(Nc1cccc(C(F)(F)F)c1)NC1N=C(c2ccccc2F)c2ccccc2N(CC(=O)N2CC3CCC(CC3)C2)C1=O (racemic) | 226 to 227 °C
O=c1c2ccccc2nnn1CCN1CC=C(c2c[nH]c3ccccc23)CC1 | 230 °C
Cc1cc(C(=O)C(=O)O)ccc1OCCOc1ccc2ccccc2c1 | 167 to 169 °C
NCc1cccc2ccc(C(=O)O)cc12 | 223 to 225 °C
Cn1nc(-c2ccc([N+](=O)[O-])cc2)c2ccccc2c1=O | 200 to 202 °C
O=C(O)c1cc(Cl)c(Oc2ccc(O)cc2)c(Cl)c1 | 163 to 165 °C

Compound | melting point
Clc1cc(Cl)n2nc(SCc3ccccc3)nc2c1 | 88 to 89 °C
COCOc1ccc(Cc2cccc(-c3c(O)c4ccc(Cl)cc4[nH]c3=O)c2)cc1 | 261 to 264 °C
CCn1cc(C(=O)O)c(=O)c2c(C)c(F)c(N3CCC(N)C3)c(F)c21 (configuration not stated) | 218 to 220 °C
O=C1c2ccc(Cl)cc2CC1S(=O)(=O)c1ccccc1 (configuration not stated) | 133 °C
CCOC(=O)C(CCO)=C(c1cccc(OC)c1)c1cccc(OC)c1 | 102 to 104 °C
O=C1Nc2cc(Cl)ccc2N[C@H]1Cc1ccccc1 | 185 °C
O=C(CCCCC1CCN(Cc2ccccc2)CC1)c1ccc(N2CCCC2)cc1 | 129 to 131 °C
O=C(NCO)N1CC(Oc2cccc(C(F)(F)F)c2)C1 | 113 to 115 °C
Cc1cccc(N2C(=S)SCC2(O)CC(C)C)n1 (configuration not stated) | 95 °C
CCCCOc1c(CO)n(CC2CC2)c(=O)c2ccc(OCc3ccccc3)cc12 | 96 to 97 °C
CON(c1ccc([N+](=O)[O-])cc1Cl)S(=O)(=O)c1ccc(Cl)c([N+](=O)[O-])c1 | 138 to 139 °C
CC(=O)OC1CCC2(C)C(=CCC3C4CC(OC(C)=O)C(=O)C4(C)CCC32)C1 (configuration not stated) | 173 to 174 °C
CC(c1ccc(Oc2ccc(N)cc2)cc1)(c1ccc(Oc2ccc(N)cc2)cc1)c1ccc(Oc2ccc(N)cc2)cc1 | 220 to 221 °C
CNn1c(SC)nnc(-c2ccccc2)c1=O | 119 to 120 °C
Cc1nc2c(OCc3cc(N(C)S(C)(=O)=O)ccc3Cl)cccn2c1Br | 158 to 162 °C
CCC(CC)CC(=N)NC(=S)Nc1ccc(Cl)cc1 | 116 to 118 °C
CC(=O)c1ccc(OCCCOc2cc(N)c(C)cc2Br)c(CCC(F)(F)F)c1O | 124 to 126 °C
CN(C)S(=O)(=O)NC1CCC(CCN2CCC(c3cccc4c3CCO4)CC2)CC1 (configuration not stated) | 122 °C
